{
  "source": "patent US8765941B2",
  "about": "(Kino Pharma, Inc., priority 2008, dated 2014)",
  "key": {"[1]": {"system": "influenza virus"}, "[2]": {"system": "LuHCV cells", "assay": "Effects on the growth of LuHCV cells (hemocytometer count)", "type": "cell-based, human", "conditions": "20 μM, 0, 6, 12, 24, 36 and 48 hours", "protocol": "LuHCV cells were plated onto a 6-well plate at 5×10^4 cells/1 mL/well and then incubated overnight. […] The final concentration of Compound 5 was 20 μM. […] After addition of Compound 5, cells were collected from 3 wells at 0, 6, 12, 24, 36, and 48 hours later, the number of viable cells per well was measured using a hemocytometer, and then the average value was calculated. Wells to which only DMSO had been added were used as control wells."}, "[3]": {"system": "intracellular HCV protein (NS3-NS4-NS5A-NS5B)", "assay": "HCV viral protein expression assay using LuHCV cells (luciferase activity)", "conditions": "48 hours, LuHCV cells", "experimental": "As an HCV viral protein expression assay, screening was performed for compounds having anti-HCV activity using human hepatocytes with which the replication and expression of the intracellular HCV protein (NS3-NS4-NS5A-NS5B) can be evaluated through determination of luciferase activity (hereinafter, referred to as LuHCV).\nLuHCV cells were plated onto 96-well plates at 5×10^3 cells/50 μL/well and then incubated overnight. Test compounds were each dissolved in dimethyl sulfoxide (DMSO) and dilution series were prepared using DMSO, if necessary. On the next day of plating of LuHCV cells, a medium containing a test compound with a concentration twice the final test concentration was added at 50 μL/well. Cells were gently cultured under culture conditions of 48 hours, 37° C., and 5% CO2 (the final concentrations of the test compounds: 0, 10, and 20 μM). At this time, analysis was made using 3 test wells for each test compound and for each concentration.\nCulture medium was removed after 48 hours. Glo lysis buffer (100 μL) (Promega) was added to each well and then cells were disrupted, so that a cell extract was obtained. With the use of 50 μL of the thus obtained cell extract, 50 μL of a Bright-Glo™ Luciferase Assay System (Promega) reagent was added. Luciferase activity in the extract was determined by measuring luminescence intensity for one second using a measuring device ARVO (PerkinElmer Co., Ltd.).\nBased on the thus obtained numerical values of luminescence intensity, an average value for each test compound at each concentration was calculated. The luminescence intensity percentage for each test compound was calculated based on a luminescence intensity for DMSO (used as a control for test substances) as 100%.\nCulture medium was removed after 48 hours. Glo Lysis buffer (100 μL) (Promega) was added to each well and then cells were disrupted, so that a cell extract was obtained. With the use of 50 μL of the thus obtained cell extract, 50 μL of a Bright-Glo™ Luciferase Assay System (Promega) reagent was added. Luciferase activity in the extract was determined by measuring luminescence intensity for one second using a measuring device ARVO (PerkinElmer Co., Ltd.).\nBased on the thus obtained numerical values of luminescence intensity, an average value for each test compound at each concentration was calculated. The luminescence intensity percentage for each test compound was calculated based on a luminescence intensity of DMSO (used as a control for test substances) as 100%."}, "[4]": {"system": "HCV RNA (NS5A)", "assay": "Effects on replication and stability of HCV RNA (RT-PCR) in LuHCV cells", "type": "cell-based, hepatitis C virus (HCV)", "conditions": "20 μM, 14 hours and 60 hours", "protocol": "LuHCV cells were plated onto 10-cm dishes at 1×10^6 cells/dish and then incubated overnight or longer. Subsequently, Compound 5 dissolved in DMSO was added at a final concentration of 20 μM. Cells were further gently cultured under culture conditions of 37° C. and 5% CO2. DMSO alone was added to a control dish. At 14 hours and 60 hours after addition of Compound 5, cells were collected and then total RNA was extracted using Sepasol-RNA (NACALAI TESQUE, INC.). cDNA was synthesized using SuperScript II reverse transcriptase (Invitrogen) and oligo-dTprimer (Promega) or random primers (Invitrogen Corporation). PCR was performed using the thus synthesized cDNA as a template, NS5A-specific primers (5′-[…]-3′ (SEQ ID NO: 1) and 5′-[…]-3′ (SEQ ID NO: 2)), GAPDH primers (5′-[…]-3′ (SEQ ID NO: 3) and 5′-[…]-3′ (SEQ ID NO: 4)), and PrimeSTAR HS DNA polymerase (Takara Bio Inc.). After DNA amplification reaction, agarose gel electrophoresis and ethidium bromide staining were performed. The expression level of each gene was evaluated using a UV transilluminator."}, "[5]": {"assay": "Toxicity test by repeated in vivo administration", "set-up": "species or system mice (Cr1j/CD1 (ICR) mice, male)", "conditions": "oral", "protocol": "A conditioning period of one week (day-7 to day-1) was provided for mice (Cr1j/CD1 (ICR) mice, male, 5-week-old), and then the mice were grouped based on the mean body weight on the day before the initiation of the test. Also, the dose of Compound 5 was calculated based on the mean body weight (day-1). There were 2 groups to which Compound 5 was administered: a placebo-administered group (n=6) to which a placebo was administered and a Compound 5-administered group (n=6) to which Compound 5 was administered. On the days of administration (day 00 to day 07), the test compound formulated using 0.5% carboxymethyl cellulose was administered via oral administration for 7 days in a row. Symptoms were observed during the administration period.\nDuring the test period, the body weight of each mouse was weighed on day −7, day −3, day −1, day 4, and day 7."}, "[6]": {"system": "HCV-NS5A protein", "assay": "HCV protein expression-suppressing activity by Western blotting in LuHCV cells", "type": "cell-based, hepatitis C virus (HCV)", "conditions": "20 μM, 14 hours and 60 hours", "protocol": "LuHCV cells were plated onto 10-cm dishes at 1×10^6 cells/dish and then incubated overnight or longer. Subsequently, Compound 5 dissolved in DMSO was added at a final concentration of 20 μM. Cells were further gently cultured under culture conditions of 37° C. and 5% CO2. DMSO alone was added to a control dish. At 14 hours and 60 hours after addition of Compound 5, cells were collected. Cells were lysed using a cell lysis solution (25 mM NaPO4 (pH 7.5), 150 mM NaCl, 1% Triton X-100, 1 mM EDTA, 20% glycerol, and protease inhibitor cocktail (Roche Diagnostics)), so that cell extracts were obtained. With the use of the thus obtained cell extracts (10 μg each), expression analysis was performed by Western blotting for an HCV-NS5A protein (an antibody was purchased from Virogen) and β-actin (an antibody was purchased from Sigma)."}},
  "note": "Like-named read-outs stand apart in the source and are kept apart here.",
  "data": [
    {"smiles": "O=C(NC(=S)Nc1cc(C(F)(F)F)ccc1N1CCCCCCC1)c1cccnc1", "note": "[Compound 5, N-nicotinoyl-N′-[2-(azacyclooctan-1-yl)-5-(trifluoromethyl)phenyl]thiourea]", "values": [
      {"measurement": "viability (% control)", "setting": "[1]; 5 µM", "result": "41.8 ± 2.2", "unit": "% control"},
      {"measurement": "viability (% control)", "setting": "[1]; 10 µM", "result": "63.1 ± 0.9", "unit": "% control"},
      {"measurement": "cell death due to influenza virus infection (result in words)", "setting": "[1]; 5 and 10 μM, 48 hours, MDCK cells", "result": "cell death was decreased"},
      {"measurement": "number of viable cells at each time point versus DMSO control", "setting": "[2]", "result": "Almost no differences were observed"},
      {"measurement": "luciferase activity (result in words)", "setting": "[3]; 0, 10 and 20 μM", "result": "Decreases in luciferase activity"},
      {"measurement": "decrease in luminescence intensity compared with the control", "setting": "[3]; 10 μM", "result": "about 50%"},
      {"measurement": "amount of NS5A and GAPDH RNA (RT-PCR)", "setting": "[4]", "result": "no quantitative change was observed"},
      {"measurement": "dead mice during the administration period", "setting": "[5]; 1000 mg/kg/day, 7 days", "result": "no dead mice were observed"},
      {"measurement": "level at which no adverse effect is observed", "setting": "[5]; 7 days repeated administration, mice", "result": "≥ 1000", "unit": "mg/kg"},
      {"measurement": "expression level of NS5A (Western blotting)", "setting": "[6]", "result": "a decrease in the expression level of NS5A was observed"},
      {"measurement": "expression level of β-actin (Western blotting)", "setting": "[6]", "result": "no change was observed"}
    ]}
  ]
}
